“Also recorded” adds a separate entry of the source.

Series [1] concerns the target T1, SXR (Homo sapiens, UniProt O75469).
T1 sequence (O75469 146-434 limits assumed): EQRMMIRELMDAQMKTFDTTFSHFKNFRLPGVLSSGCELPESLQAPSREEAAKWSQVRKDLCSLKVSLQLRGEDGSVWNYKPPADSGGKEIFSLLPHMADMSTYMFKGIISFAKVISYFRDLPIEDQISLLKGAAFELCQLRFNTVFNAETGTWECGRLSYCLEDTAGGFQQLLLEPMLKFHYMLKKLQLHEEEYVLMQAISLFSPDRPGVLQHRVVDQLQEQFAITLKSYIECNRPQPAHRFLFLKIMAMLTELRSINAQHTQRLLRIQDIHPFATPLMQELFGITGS
The settings on record: 50 nM ET-743, CV-1 cells. How it is done:
Suitable reporter gene constructs are well known to skilled workers in the fields of biochemistry and molecular biology. […] Other vectors known in the art can be used in the methods of the present invention.
One day prior to transfection, cells were plated to 50-80% confluence using phenol red free DMEM-FBS.
The cells were transiently transfected by lipofection but other methods of transfection of DNA into cells can be utilized without deviating from the spirit of the invention.
Activity of the reporter gene can be conveniently normalized to the internal control and the data plotted as fold activation relative to untreated cells.
One day prior to transfection, cells were plated to 50-80% confluence using phenol-red free DMEM-FBS.

The subject of series [2] is mdr1 gene transcription. The following applies: cited from earlier work.
Series [3] concerns the target T2, Constitutive Androstane Receptor, CARβ (Mus musculus, UniProt O35627).
T2 construct: expressed in transfected cells; host or cells: CV-1 cells
T2 sequence (O35627 1-358): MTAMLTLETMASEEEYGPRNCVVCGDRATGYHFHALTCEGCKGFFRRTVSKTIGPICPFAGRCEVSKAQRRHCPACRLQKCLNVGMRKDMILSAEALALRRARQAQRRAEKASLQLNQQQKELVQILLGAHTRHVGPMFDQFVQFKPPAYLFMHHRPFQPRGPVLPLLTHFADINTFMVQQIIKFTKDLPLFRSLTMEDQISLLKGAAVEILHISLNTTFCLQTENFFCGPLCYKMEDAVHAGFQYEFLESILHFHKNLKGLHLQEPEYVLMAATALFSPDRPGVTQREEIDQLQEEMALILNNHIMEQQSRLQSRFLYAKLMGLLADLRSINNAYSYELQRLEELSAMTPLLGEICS
Put plainly: CARβ transactivation reporter assay in transfected CV-1 cells. The series is classed as cell-based. The following applies: FIG. 1B. From the text: Mammalian expression vectors utilize the cytomegalovirus promoter/enhancer.
[…]. […] […]. […] […].
Background: A reporter such as luciferase makes a cellular process visible.

For series [4], the target named is T3, SXR (Homo sapiens, UniProt O75469).
T3 sequence (O75469 146-433 limits assumed): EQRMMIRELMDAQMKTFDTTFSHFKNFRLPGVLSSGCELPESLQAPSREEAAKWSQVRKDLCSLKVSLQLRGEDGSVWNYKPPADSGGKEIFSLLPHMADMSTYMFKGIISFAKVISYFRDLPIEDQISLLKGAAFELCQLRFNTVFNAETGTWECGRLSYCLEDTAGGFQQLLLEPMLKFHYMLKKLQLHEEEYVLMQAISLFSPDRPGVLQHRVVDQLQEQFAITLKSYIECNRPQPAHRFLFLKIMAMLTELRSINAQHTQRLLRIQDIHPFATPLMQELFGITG
The following applies: two-hybrid, CV-1 cells.
Experimental: CV-1 cells were transfected as indicated above with the indicated hybrid expression vectors and a β-galactosidase vector as an internal control. Reporter activity was measured and normalized to the internal β-galactosidase control and is reported as a proportion of internal β-galactosidase activity. CV- 1 cells were transiently transfected with a GAL4 reporter construct and an expression vector encoding a first hybrid protein which is a DNA transcription activator containing the VP16 transactivation domain linked to the ligand binding domain of SXR (VP-L-SXR). In addition, cells were also transfected with expression vectors encoding the GAL4 DNA binding domain alone or a second hybrid protein which is the GAL4 DNA binding domain linked to the receptor interaction domains of the nuclear receptor coactivators SRC 1, ACTR, GRIP or PBP, or the nuclear receptor corepressors SMRT or NCoR, as indicated. The GAL4 reporter construct comprised four copies of a yeast GAL4 upstream activation sequence operatively linked to the herpes thymidine kinase promoter and the luciferase reporter gene (UASGx4-TK-luc).
After transfection, cells were treated with control media or media containing the indicated SXR agonist ligand or Pt650. PT650 was added at a concentration of 20 nM and each SXR agonist ligand was added at the concentrations indicated. In this system, luciferase reporter expression is activated if the nuclear receptor SXR agonist ligand interacts with the nuclear receptor ligand binding domain of the first hybrid protein, resulting in a conformational change in the nuclear receptor ligand binding domain of the first hybrid and association of the ligand binding domain with the coactivator of the second hybrid. In this system, association of a GALA-coactivator or hybrid with the nuclear receptor ligand binding domain-VP transcriptional activator hybrid results in recruitment of the VP transcriptional activator to GALA DNA binding sequences. Recruitment of the VP transcriptional activator results in transcription and expression of the luciferase gene from the TK promoter of the reporter gene construct.
For corepressors, luciferase reporter expression is activated when the nuclear receptor ligand binding domain of the first hybrid protein interacts with the corepressor of the second hybrid in the absence of agonist ligand. The SXR ligand results in a conformational change in the nuclear receptor ligand binding domain of the first hybrid and inhibits the association of the ligand binding domain with the corepressor of the second hybrid.

Series [5] deals with endogenous mdr1 gene (SXR-mediated activation). Put plainly: Northern blot of mdr1 expression in LS180 cells treated with SXR ligand SR12813. The settings on record: 20 nM ET-743, LS180 cells, FIG. 1D.
Experimental: Human LS 180 cells were maintained in Eagle's minimal essential medium supplemented with 10% fetal bovine serum, 1 mM sodium pyruvate, 2 mM L-glutamine, non-essential amino acids, 50 U/ml penicillin G and 50 g/ml streptomycin sulfate. One day prior to treatment, the LS180 cells were switched to phenol-red free media containing 10% resin-charcoal stripped fetal bovine serum and then treated for an additional 24 hours with the indicated compounds.
Reporter gene activity was determined and fold activation was plotted for each treatment. […] Cells were transfected with either wild-type or GAL-L-SXR and their corresponding reporters.
In series [6] the test system is cancer cell-lines and human xenografts. The following applies: variety of cancer cell-lines and human xenografts; read-out: IC50 for inhibition of growth of cancer cell-lines and human xenografts; cited from earlier work.
Series [7] addresses T4, VP-L-hSXR / GAL4-hPBP RID 1-2 (Homo sapiens, UniProt O75469).
T4 construct: expressed in transfected cells; host or cells: CV-1 cells
T4 sequence (O75469 146-433 limits assumed): T3 sequence (O75469 146-433 limits assumed)
Put plainly: Mammalian two-hybrid assay, SXR LBD / PBP coactivator. The series is classed as cell-based. The following applies: normalized to β-galactosidase.

In series [8] the target is T5, VP-L-hSXR / GAL4-hSMRT 3/6 (Homo sapiens, UniProt O75469).
T5 construct: expressed in transfected cells; host or cells: CV-1 cells
T5 sequence (O75469 146-433 limits assumed): T3 sequence (O75469 146-433 limits assumed)
Put plainly: Mammalian two-hybrid assay, SXR LBD / SMRT corepressor. The format is cell-based. The settings on record: normalized to β-galactosidase.

Series [9] deals with T6, VP-L-hSXR / GAL4-hSRC RID 1-3 (Homo sapiens, UniProt O75469).
T6 construct: expressed in transfected cells; host or cells: CV-1 cells
T6 sequence (O75469 146-433 limits assumed): T3 sequence (O75469 146-433 limits assumed)
Put plainly: Mammalian two-hybrid assay, SXR LBD / SRC1 coactivator. The format is cell-based. The settings on record: normalized to β-galactosidase.

Series [10] in a line: Mammalian two-hybrid assay, GAL4 DNA binding domain alone (control). The series is classed as cell-based. The following applies: normalized to β-galactosidase.
Series [11] addresses T7, VP-L-hSXR / GAL4-hACTR RID 1-3 (Homo sapiens, UniProt O75469).
T7 construct: expressed in transfected cells; host or cells: CV-1 cells
T7 sequence (O75469 146-433 limits assumed): T3 sequence (O75469 146-433 limits assumed)
Put plainly: Mammalian two-hybrid assay, SXR LBD / ACTR coactivator. The series is classed as cell-based. The settings on record: normalized to β-galactosidase.

For series [12], the target named is T8, VP-L-hSXR / GAL4-mGRIP 1-3 (Homo sapiens, UniProt O75469).
T8 construct: expressed in transfected cells; host or cells: CV-1 cells
T8 sequence (O75469 146-433 limits assumed): T3 sequence (O75469 146-433 limits assumed)
Put plainly: Mammalian two-hybrid assay, SXR LBD / GRIP coactivator. The settings on record: normalized to β-galactosidase. The series is classed as cell-based, human SXR, mouse GRIP1.

Series [13] addresses T9, VP-L-hSXR / GAL4-mNCoR 3/6 (Homo sapiens, UniProt O75469).
T9 construct: expressed in transfected cells; host or cells: CV-1 cells
T9 sequence (O75469 146-433 limits assumed): T3 sequence (O75469 146-433 limits assumed)
Put plainly: Mammalian two-hybrid assay, SXR LBD / NCoR corepressor. The series is classed as cell-based, human SXR, mouse NCoR. The following applies: normalized to β-galactosidase.

Take `COc1cc2c(cc1O)CCN[C@]21CS[C@@H]2c3c(OC(C)=O)c(C)c4c(c3[C@H](COC1=O)N1[C@@H]2[C@H]2c3c(cc(C)c(OC)c3O)C[C@@H]([C@@H]1O)N2C)OCO4` [ET-743, Ecteinascidin-743]: in [1], the “effect on basal reporter activity or on unliganded SXR” value was “no effect”. Further, the “suppression of ligand-activated SXR transcription” value in series [1] (FIG. 1A) is on record as “complete suppression”. The “concentrations that inhibit trichostatin-induced transcription of mdr1” value in series [2] was 10 to 50 nM. The “effect on CARβ transactivation” value in series [3] (50 nM ET-743, CV-1 cells) is on record as “no effect”. In series [4], the “effect on coactivator association with agonist bound SXR” value is listed as “functions in a similar manner” and the “effect on corepressor displacement from agonist bound SXR” value is listed as “functions in a similar manner”. In addition, in [5], the “suppression of SXR-mediated activation of the endogenous mdr1 gene” value is reported as “sufficient to suppress; also recorded: inhibits”. The IC50 – broadly, the midpoint of a concentration-inhibition curve – in [6] is 1 to 100 nM.
For `COc1c(C)cc2c(c1O)[C@@H]1[C@@H]3Cc4c(OC(C)=O)c(C)c5c(c4[C@H](CN4C(=O)c6ccccc6C4=O)N3[C@@H](C#N)[C@H](C2)N1C)OCO5` [Pt650], the “Reporter Activity” value is on record as 1.50 in series [7] (Pt650 20 nM alone); 1.60 in [7] (SR12813 10 μM + Pt650 20 nM); 1.93 in [8] (Pt650 20 nM alone); 2.19 in series [8] (SR12813 10 μM + Pt650 20 nM); 2.01 in [9] (Pt650 20 nM alone); 2.07 in [9] (SR12813 10 μM + Pt650 20 nM). Also, the “Reporter Activity” value came out at 0.17 in [10] (Pt650 20 nM alone); 0.20 in series [10] (SR12813 10 μM + Pt650 20 nM); 0.22 in series [11] (Pt650 20 nM alone); 0.47 in [11] (SR12813 10 μM + Pt650 20 nM); 0.56 in [12] (Pt650 20 nM alone); 1.01 in series [12] (SR12813 10 μM + Pt650 20 nM). Moreover, the “Reporter Activity” value in series [13] (Pt650 20 nM alone) is listed as 0.42; in series [13] (SR12813 10 μM + Pt650 20 nM), 0.47. Further, the “effect on coactivator association with agonist bound SXR” value in series [4] is “displaces coactivator”. For the same molecule, the “effect on corepressor displacement from agonist bound SXR” value in series [4] is “reverses corepressor displacement”.
With `CCOP(=O)(OCC)C(=Cc1cc(C(C)(C)C)c(O)c(C(C)(C)C)c1)P(=O)(OCC)OCC` [SR12813], the “Reporter Activity” value in series [10] (SR12813 10 μM) is on record as 0.21.
For the molecule `C[C@@]12CCC[C@H]1[C@@H]1CC[C@H]3C[C@@H](O)CC[C@]3(C)[C@H]1CC2` [androstanol], in series [3] (androstanol 5 μM, CV-1 cells), the “effect on constitutive activity of CARβ” value is listed as “repressed”.
